According to patent US8741892B2, “Compounds” (Boehringer Ingelheim International GmbH, priority 2011, dated 2014):

molecular target: T1, human recombinant mGluR5 (Homo sapiens, UniProt P41594); assay: positive modulation of mGluR5, calcium based FLIPR assay; conditions: HEK 293 cell line expressing human recombinant mGluR5; EC50 of the modulation from peak Ca fluorescence signal after glutamate at approx. 5% basal stimulation
T1 construct: expressed in transfected cells; host or cells: HEK 293
Summary of the method: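 HEK 293 cells expressing human recombinant mGluR5, Calcium-4 dye-loaded in Ringer solution pH 7.4. Compound (1% DMSO final) preincubated 5 min, then glutamate at ~5% of maximal effect added; peak Ca2+ fluorescence gives EC50 by nonlinear regression, normalized to DMSO (100%) and 10 μM CDPPB (200%) controls.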

T1 sequence (P41594 21-1212): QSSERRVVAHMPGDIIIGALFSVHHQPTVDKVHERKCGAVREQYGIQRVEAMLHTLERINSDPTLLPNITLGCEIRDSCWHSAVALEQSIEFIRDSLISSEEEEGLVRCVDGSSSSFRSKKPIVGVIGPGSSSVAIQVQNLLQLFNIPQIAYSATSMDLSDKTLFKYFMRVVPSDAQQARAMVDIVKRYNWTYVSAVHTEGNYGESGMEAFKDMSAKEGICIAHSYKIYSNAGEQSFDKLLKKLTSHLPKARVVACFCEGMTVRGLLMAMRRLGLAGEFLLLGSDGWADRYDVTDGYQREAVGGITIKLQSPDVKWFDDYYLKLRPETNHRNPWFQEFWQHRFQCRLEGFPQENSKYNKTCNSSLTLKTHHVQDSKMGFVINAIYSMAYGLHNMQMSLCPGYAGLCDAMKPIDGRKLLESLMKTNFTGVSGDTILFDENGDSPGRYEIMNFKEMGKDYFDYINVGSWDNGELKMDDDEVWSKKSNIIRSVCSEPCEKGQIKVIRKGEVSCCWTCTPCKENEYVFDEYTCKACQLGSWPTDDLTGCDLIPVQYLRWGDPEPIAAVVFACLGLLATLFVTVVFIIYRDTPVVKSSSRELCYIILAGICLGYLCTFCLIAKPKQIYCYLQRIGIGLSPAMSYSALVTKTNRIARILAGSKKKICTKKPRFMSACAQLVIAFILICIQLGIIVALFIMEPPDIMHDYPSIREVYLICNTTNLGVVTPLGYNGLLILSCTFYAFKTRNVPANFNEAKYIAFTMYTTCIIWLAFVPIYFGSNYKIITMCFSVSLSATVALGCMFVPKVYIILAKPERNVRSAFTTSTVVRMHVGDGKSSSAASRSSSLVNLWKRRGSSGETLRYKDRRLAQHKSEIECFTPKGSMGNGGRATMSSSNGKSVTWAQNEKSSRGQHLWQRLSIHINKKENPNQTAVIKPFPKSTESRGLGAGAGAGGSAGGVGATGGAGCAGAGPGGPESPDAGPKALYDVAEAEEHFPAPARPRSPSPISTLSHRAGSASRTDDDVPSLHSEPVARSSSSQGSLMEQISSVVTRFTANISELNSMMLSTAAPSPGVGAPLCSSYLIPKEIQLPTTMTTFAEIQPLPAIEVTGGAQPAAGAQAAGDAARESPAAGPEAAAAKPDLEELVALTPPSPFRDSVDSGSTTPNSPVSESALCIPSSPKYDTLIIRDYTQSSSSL

Row | Structure (SMILES) | EC50 [nM]
1 | O=C(Cn1nc(-c2ccccc2)cc1-c1ccccc1)N1CCN(c2nc3ccccc3o2)CC1 [Example 7.02.009] | 220
2 | CCc1cc(-c2ccc(F)c(C)c2)nn1CC(=O)N1CCc2nc(N)sc2CC1 [Example 7.02.026] | 83
3 | Cc1nc2c(s1)CCN(C(=O)Cn1nc(-c3ccc(F)c(C)c3)cc1C1CC1)CC2 [Example 7.02.035] | 35
4 | CCc1cc(-c2cccc(C)c2)nn1CC(=O)N1CC=C(c2cc(OC)ncn2)CC1 [Example 7.02.093] | 120
5 | Cc1nc2c(s1)CCN(C(=O)Cn1nc(-c3ccc(C(F)F)cc3)cc1-c1ccccc1)CC2 [Example 7.02.259] | 10
6 | O=C(Cn1nc(-c2ccccc2)cc1-c1ccccc1)N1CCC(c2nnc(-c3ccc(F)cc3)o2)CC1 [Example 7.01.047] | 789
7 | Cc1nc2c(s1)CCN(C(=O)Cn1nc(-c3ccc(F)c(C)c3)cc1C)CC2 [Example 7.01.059] | 32
8 | O=C(Cn1nc(-c2ccccc2)cc1-c1ccccc1)N1CCN(c2nnc(C(F)(F)F)s2)CC1 [Example 7.01.037] | 188
9 | Cc1cc(-c2cc(-c3ccccc3)n(CC(=O)N3CC=C(c4ncc(F)cn4)CC3)n2)ccc1F [Example 7.02.099] | 18
10 | CCc1cc(-c2cccc(C)c2)nn1CC(=O)N1CCC(c2ncc(OC)cn2)CC1 [Example 7.02.081] | 991
11 | CCc1cc(-c2ccc(F)c(C)c2)nn1CC(=O)N1CCC(c2ncc(C)o2)CC1 [Example 7.02.207] | 70
12 | CCCc1cc(-c2ccc(F)c(C)c2)nn1CC(=O)N1Cc2nc(C)sc2C1 [Example 7.02.034] | 42
13 | Cc1cnc(C2=CCN(C(=O)Cn3nc(-c4ccc(F)c(C)c4)cc3-c3ccccc3)CC2)s1 [Example 7.02.134] | 15
14 | CCc1cc(-c2ccc(F)c(C)c2)nn1CC(=O)N1CCN(c2noc(C)n2)CC1 [Example 7.02.196] | 43
15 | Cc1coc(N2CCN(C(=O)Cn3nc(-c4ccc(F)c(C)c4)cc3C)CC2)n1 [Example 7.02.168] | 604
16 | COc1ccc(-c2cc(-c3ccccc3)n(CC(=O)N3CCc4nc(C)sc4CC3)n2)cc1C [Example 7.02.241] | 76
17 | CC(C)NC(=O)Nc1nc2c(s1)CN(C(=O)Cn1nc(-c3ccccc3)cc1-c1ccccc1)CC2 [Example 7.01.028] | 1300
18 | O=C(Cn1nc(-c2ccccc2)cc1-c1ccccc1)N1CCN(c2noc3ccccc23)CC1 [Example 7.01.016] | 143
19 | Cc1cc(-c2cc(-c3ccccc3)n(CC(=O)N3CCc4cccnc4CC3)n2)ccc1F [Example 7.02.131] | 8
20 | CCc1cc(-c2cc(C)c(F)c(C)c2)nn1CC(=O)N1CCc2nc(C)sc2CC1 [Example 7.02.132] | 186
21 | Cc1nc2c(s1)CN(C(=O)Cn1nc(-c3ccc(F)cc3)cc1-c1ccc(F)cc1)C2 [Example 7.02.011] | 37
22 | Cc1nnc(N2CCN(C(=O)Cn3nc(-c4ccc(C(F)F)cc4)cc3-c3ccccc3)CC2)o1 [Example 7.02.258] | 31
23 | CCc1cc(-c2cccc(C)c2)nn1CC(=O)N1CCc2nc(N)sc2CC1 [Example 7.02.079] | 182
24 | CCc1cc(-c2ccc(F)c(C)c2)nn1CC(=O)N1CC=C(c2cccc(OC)c2)CC1 [Example 7.02.137] | 352
25 | Nc1nc2c(s1)CCN(C(=O)Cn1nc(-c3ccc(F)cn3)cc1-c1ccc(F)cc1)CC2 [Example 7.02.060] | 760

Row | Structure (SMILES) | EC50 [nM]
26 | CCc1cc(-c2ccc(F)c(C)c2)nn1CC(=O)N1CCc2ccsc2CC1 [Example 7.01.071] | 233
27 | CCCc1cc(-c2ccc(F)c(C)n2)nn1CC(=O)N1CCc2nc(C)sc2CC1 [Example 7.02.247] | 172
28 | Cc1ccc(-c2cc(-c3ccccc3)n(CC(=O)N3CCc4nc(C)sc4CC3)n2)nc1 [Example 7.02.116] | 21
29 | CCCc1cc(-c2ccc(F)c(C)c2)nn1CC(=O)N1CC=C(c2ncc(OC)cn2)CC1 [Example 7.02.071] | 71
30 | CCc1cc(-c2cccc(C)c2)nn1CC(=O)N1Cc2nc(C)sc2C1 [Example 7.02.080] | 321
31 | O=C(Cn1nc(-c2ccccc2)cc1-c1ccccc1)N1CCN(c2cccc(Br)c2)C(=O)C1 [Example 7.01.013] | 617
32 | COc1cccc(C2=CCN(C(=O)Cn3nc(-c4ccc(F)c(C)c4)cc3-c3ccccc3)CC2)c1 [Example 7.02.136] | 141
33 | Cc1cc(-c2cc(-c3ccccc3)n(CC(=O)N3CCC(c4ncccn4)CC3)n2)ccc1F [Example 7.02.016] | 110
34 | CCc1cc(-c2cc(C)c(F)c(C)c2)nn1CC(=O)N1Cc2nc(C)sc2C1 [Example 7.02.181] | 398
35 | COc1ccc(-c2cc(C(C)C)n(CC(=O)N3CCc4nc(N)sc4CC3)n2)cc1C [Example 7.02.046] | 881
36 | Cc1cc(-c2cc(-c3ccccc3)n(CC(=O)N3CCc4ccc(N)cc4CC3)n2)ccc1F [Example 7.01.095] | 53
37 | Cc1nc2c(s1)CCN(C(=O)Cn1nc(-c3ccc(F)cc3)cc1-c1ccc(F)cc1)CC2 [Example 7.02.010] | 13
38 | COc1cc(-c2cc(-c3ccccc3)n(CC(=O)N3CC=C(c4ncc(C)o4)CC3)n2)ccc1F [Example 7.02.153] | 15
39 | Cc1nc2c(s1)CN(C(=O)Cn1nc(-c3ccc(OC(F)F)cc3)cc1-c1ccccc1)C2 [Example 7.02.222] | 23
40 | COc1ccc(-c2cc(C(C)C)n(CC(=O)N3CCN(c4cccc(OC)c4)C(=O)C3)n2)cc1 [Example 7.02.041] | 1220
41 | Cc1nc2c(o1)CN(C(=O)Cn1nc(-c3ccc(F)c(C)c3)cc1-c1ccccc1)CC2 [Example 7.02.097] | 8
42 | O=C(Cn1nc(-c2ccccc2)cc1-c1ccccc1)N1CCC(c2noc3ccccc23)CC1 [Example 7.02.007] | 600
43 | CCc1cc(-c2ccc(C)c(C)c2)nn1CC(=O)N1CCc2nc(N)sc2CC1 [Example 7.02.074] | 171
44 | Cc1nnc(N2CCN(C(=O)Cn3nc(-c4ccc(OC(F)F)cn4)cc3-c3ccccc3)CC2)o1 [Example 7.02.234] | 200
45 | CCc1cc(-c2ccc(F)cc2)nn1CC(=O)N1CCc2nc(C)sc2CC1 [Example 7.02.029] | 329
46 | O=C(Cn1nc(-c2ccccc2)cc1-c1ccccc1)N1CCc2c(F)cccc2C1 [Example 7.01.009] | 1540
47 | CCc1cc(-c2ccc(F)c(C)c2)nn1CC(=O)N1CCc2ccc(OC)cc2CC1 [Example 7.01.065] | 173
48 | COc1cccc(C2CCN(C(=O)Cn3nc(-c4ccc(F)c(C)c4)cc3-c3ccccc3)CC2)c1 [Example 7.02.146] | 295
49 | Cc1nc2c(s1)CN(C(=O)Cn1nc(-c3ccccc3)cc1-c1ccccc1)C2 [Example 7.01.038] | 359
50 | CCc1cc(-c2ccc(F)c(C)c2)nn1CC(=O)N1CCN(c2nccs2)CC1 [Example 7.02.217] | 56

Row | Structure (SMILES) | EC50 [nM]
51 | CNc1nc2c(s1)CCN(C(=O)Cn1nc(-c3ccc(F)c(C)c3)cc1C1CCCCC1)CC2 [Example 7.02.049] | 157
52 | Cc1nc(N2CCN(C(=O)Cn3nc(-c4ccc(OC(F)F)cc4)cc3-c3ccccc3)CC2)no1 [Example 7.02.224] | 2
53 | CCc1cc(-c2ccc(F)c(C)c2)nn1CC(=O)N1CCc2nc(N)sc2C1 [Example 7.01.068] | 236
54 | CCc1nc2c(o1)CN(C(=O)Cn1nc(-c3ccc(F)c(C)c3)cc1CC)C2 [Example 7.02.256] | 11
55 | CCCc1cc(-c2ccc(F)c(C)c2)nn1CC(=O)N1CCN(c2cccc(OC)c2)C(=O)C1 [Example 7.02.032] | 37
56 | Cc1nc(N2CCN(C(=O)Cn3nc(-c4ccc(OC(F)F)cn4)cc3-c3ccccc3)CC2)no1 [Example 7.02.235] | 30
57 | COc1cc(-c2cc(-c3ccccc3)n(CC(=O)N3CCC(c4ncc(C)o4)CC3)n2)ccc1F [Example 7.02.152] | 67
58 | Cc1cc(-c2cc(C3CCCCC3)n(CC(=O)N3CCc4nc(N)sc4CC3)n2)ccc1F [Example 7.02.050] | 183
59 | Cc1cc(-c2cc(-c3ccccc3)n(CC(=O)N3CCc4ccccc4C3)n2)ccc1F [Example 7.01.087] | 125
60 | COc1ccc(-c2cc(C(C)C)n(CC(=O)N3Cc4nc(C)sc4C3)n2)cc1 [Example 7.02.045] | 1410
61 | O=C(Cn1nc(-c2ccccc2)cc1-c1ccccc1)N1CCN(c2nccc3occc23)CC1 [Example 7.01.049] | 652
62 | Cc1ccc(-c2cc(-c3ccccc3)n(CC(=O)N3CCc4nc(N)sc4CC3)n2)nc1 [Example 7.02.117] | 66
63 | Cc1nnc(N2CCN(C(=O)Cn3nc(-c4cccc(C#N)c4)cc3-c3ccccc3)CC2)o1 [Example 7.02.192] | 82
64 | CCc1cc(-c2cccc(C#N)c2)nn1CC(=O)N1CCN(c2nnc(C)o2)CC1 [Example 7.02.187] | 1610
65 | Cc1cccc(-c2cc(-c3ccccc3)n(CC(=O)N3CCC(c4nnc(C)o4)CC3)n2)c1 [Example 7.02.197] | 90
66 | CCc1cc(-c2ccc(F)cc2)nn1CC(=O)N1Cc2nc(C)sc2C1 [Example 7.02.031] | 1240
67 | Cc1cnc(C2CCN(C(=O)Cn3nc(-c4cccc(C#N)c4)cc3-c3ccccc3)CC2)o1 [Example 7.02.194] | 63
68 | CCc1cc(-c2ccc(C)c(C)c2)nn1CC(=O)N1CCC(c2cc(OC)ncn2)CC1 [Example 7.02.092] | 369
69 | Cc1cc(-c2cc(C)n(CC(=O)N3CCc4nc(N)sc4CC3)n2)ccc1F [Example 7.01.060] | 101
70 | CCc1cc(-c2ccc(C)c(C)c2)nn1CC(=O)N1CCc2nc(C)sc2CC1 [Example 7.02.083] | 35
71 | CCc1cc(-c2cccc(C#N)c2)nn1CC(=O)N1CCc2nc(C)sc2CC1 [Example 7.02.184] | 132
72 | Cc1cc(-c2cc(-c3ccccc3)n(CC(=O)N3CCc4nc(N)sc4C3)n2)ccc1F [Example 7.01.093] | 35
73 | Cc1cc(-c2cc(-c3ccccc3)n(CC(=O)N3CCc4ncccc4C3)n2)ccc1F [Example 7.01.078] | 78
